This is an account of results in patent US20230278958A1 (Merck Patent GmbH, priority 2020, published 2023).

The subject of one experiment is YAP-TEAD interaction. In words: SK-HEP-1 reporter assay (8x TEAD responsive elements driving NanoLuc luciferase). In kind it is cell-based. Particulars: Homo sapiens, SK-HEP1; SK-HEP-1 TEAD-NanoLuc reporter cells, 24 hour incubation, luciferase readout. As for the experimental part:
To identify inhibitors of YAP-TEAD interaction, 8× TEAD responsive elements driving the NanoLuc® luciferase gene were stably integrated into SK-HEP-1 cells (ECACC #: 91091816).
For the assay, cells were treated in duplicates with the test compounds in a 10-point dose, with the top concentration starting at 30 μM (final concentration in assay). After a 24 hour incubation at 37° C., 95% rH, and 5% CO2, a luciferase substrate/lysis reagent mix (NanoGlo™, Promega) was added to the cells, allowing the quantification of cellular luciferase activity.
Cell Media: The cells were cultured in the following media: MEM, +10% FBS, +1× GlutaMAX, +1 mM Sodium-Pyruvate, +100 μM Non-essential amino acids, +0.1 mg/ml Hygromycin. The media used for the assay was: MEM (w/o Phenol Red), +10% FBS, +1× GlutaMAX, +1 mM Sodium-Pyruvate, +100 μM Non-essential amino acids, +0.5% Pen/Strep
(§1) Reagents: The reagents used are listed below:
Cell culture: The cells were examined using an inverted microscope to check for health and cell density. To dissociate adherent cells, the monolayer of cells was washed once with pre-warmed PBS. After removing the PBS, 3 ml pre-warmed Accutase® was added to a F75 flask, dispersed evenly and the flask was allowed to sit in incubator for ˜4-5 minutes.
(§2) When a single cell suspension was obtained, 7 ml of prewarmed growth media was added and resuspended with the cells. The cell suspension was transferred to a sterile 15 ml conical centrifuge tube, and spun for 5 min at 300×g, RT. The supernatant was discarded and the pellet was resuspended in 10 ml of pre-warmed growth media.
(§3) The total cell count was determined, and 20 μl of the desired cell number was added to each well of a 384 well plate using a Multidrop Combi. The plates were then incubated for 24 hours at 37° C., 95% rH, and 5% CO2.
(§4) Compound treatment: 24 hours after seeding, the cells were treated with compounds.
(§5) A 1:333 dilution of compounds, diluted in DMSO, was made to get a final concentration of 0.3% DMSO per well. To transfer the compounds to the assay plate, 120 nl was shot from Labcyte low dead volume plates to the cell plates containing 20 μl media/well with the ECHO 555 liquid handling system.
(§6) After treatment, the cells were fed with 20 μl fresh pre-warmed assay media using a Multidrop combi.
The assay plates were then incubated for another 24 h at 37° C., 95% rH, and 5% CO2.
Luciferase readout: 24 h after treatment, the plates were taken out of the incubator and were allowed to equilibrate to RT. 30 μl of NanoGlo® reagent was added to the plates in the dark. Plates were shaken for 20 min on a Teleshake (˜1500 rpm) in the dark. The luminescence was then measured using an EnVision microplate reader. The IC50 values were generated using Genedata Screener®.
Experimental data in SK-HEP-1 reporter assay of the compounds shown in Table 1 are shown in Table 2 below and classified in the following groups: […]
On the technique in general: A reporter such as luciferase makes a cellular process visible.

In a further experiment the test system is NCI-H226 cells. In words: Viability assay in NCI-H226 (Yap-dependent) cells, CyQUANT. The format is cell-based. Particulars: Homo sapiens, 96 hour incubation. Here is the method:
The ability of YAP-TEAD inhibitors to inhibit tumor cell growth was evaluated using two different cell lines: NCI-H226, which is a YAP dependent cell line, and SW620 cells, where YAP and TAZ were knocked out using CRISPR to generate a YAP independent cell line.
For the assay, cells were treated in duplicates with the test compounds in a 10-point dose, 1:3 dilution steps, with the top concentration starting at 30 μM (final concentration in assay). After a 96 hour incubation at 37° C., 95% rH, and 5% CO2, a cell-permeant DNA-binding dye that stains only healthy cells (CyQUANT®, Promega) was added to the cells, allowing the quantification of cell viability.
Cell Media: The NCI-H226 cells were cultured in the following media: RPMI 1640, +10% FBS, +1× GlutaMAX, +10 mM HEPES, +0.5% Pen/Strep. The SW620-KO cells were cultured in the following media: DMEM/F-12, +10% FBS, +1× GlutaMAX, +10 mM HEPES, +0.5% Pen/Strep.
as §1
Cell culture: The cells were examined using an inverted microscope to check for health, cell density, etc. To dissociate adherent cells, the monolayer of cells was washed once with pre-warmed PBS. After removing the PBS, 3 ml pre-warmed Accutase was added to a F75 flask, dispersed evenly and the flask was allowed to sit in incubator for ˜4-5 minutes.
as §2, §3, §4, §5, §6
The assay plates were then incubated for 96 h at 37° C., 95% rH, and 5% CO2.
96h after treatment 30 μl of CyQuant® reagent was added to the assay plates using a Multidrop combi in the dark. The plates were then incubated for 1 hour at 37° C., 95% rH and 5% CO2. Thereafter, the assay plates were removed from the incubator and allowed to equilibrate to RT for 30 min in the dark without lid. Finally, they were measured using an EnVision microplate reader with a FITC bottom read program.
Experimental data in the Viability assay of the compounds shown in Table 1 are shown in Table 3 below and classified in the following groups: […]

Broadly, the IC50 is the concentration that gives 50% inhibition. Read a high IC50 as a need for much substance. Consider `Cc1ccc2c(c1)c1cc(C(=O)NC3CC3)ccc1n2-c1ccc(C(F)(F)F)cc1` [Compound 37, N-cyclopropyl-6-methyl-9-[4-(trifluoromethyl)phenyl]-9H-carbazole-3-carboxamide], for which the IC50 with YAP-TEAD interaction is 0.01 to 0.1 µM; in the experiment on NCI-H226 cells it was 0.001 to 0.1 µM.
Regarding `Cc1ccc2c(c1)c1cc(C(=O)NCCO)ccc1n2-c1ccc(C(F)(F)F)cc1` [Compound 38, N-(2-hydroxyethyl)-6-methyl-9-[4-(trifluoromethyl)phenyl]-9H-carbazole-3-carboxamide], the IC50 lay within 0.01 to 0.1 µM with YAP-TEAD interaction and 0.001 to 0.1 µM in the experiment with NCI-H226 cells.
As for `Cc1ccc2c(c1)c1cc(C(=O)NC(C)CO)ccc1n2-c1ccc(C(F)(F)F)cc1` (centres unmarked) [Compound 39, N-(1-hydroxypropan-2-yl)-6-methyl-9-[4-(trifluoromethyl)phenyl]-9H-carbazole-3-carboxamide], the figures for the concentration for half-maximal inhibition (IC50) in the experiment with YAP-TEAD interaction and with NCI-H226 cells were 0.01 to 0.1 µM and 0.001 to 0.1 µM, respectively.
With `Cc1ccc2c(c1)c1cc(C(=O)NCC(C)O)ccc1n2-c1ccc(C(F)(F)F)cc1` (centres unmarked) [Compound 40, N-(2-hydroxypropyl)-6-methyl-9-[4-(trifluoromethyl)phenyl]-9H-carbazole-3-carboxamide], the values for the 50% inhibitory concentration (IC50) in the experiment with YAP-TEAD interaction and in the experiment on NCI-H226 cells were 0.01 to 0.1 µM and 0.001 to 0.1 µM, respectively.
Take `Cc1ccc2c(c1)c1cc(C(=O)NC(CO)C(C)C)ccc1n2-c1ccc(C(F)(F)F)cc1` (centres unmarked) [Compound 41, N-(1-hydroxy-3-methylbutan-2-yl)-6-methyl-9-[4-(trifluoromethyl)phenyl]-9H-carbazole-3-carboxamide]: the IC50 in the experiment on YAP-TEAD interaction and in the experiment with NCI-H226 cells was 0.1 to 1 µM each time.
For `CCC(CO)NC(=O)c1ccc2c(c1)c1cc(C)ccc1n2-c1ccc(C(F)(F)F)cc1` (centres unmarked) [Compound 42], the IC50 in the experiment on YAP-TEAD interaction was 0.01 to 0.1 µM; in the experiment on NCI-H226 cells it was 0.001 to 0.1 µM.
On to `Cc1ccc2c(c1)c1cc(C(=O)NCC(C)(C)O)ccc1n2-c1ccc(C(F)(F)F)cc1` [Compound 43, N-(2-hydroxy-2-methylpropyl)-6-methyl-9-[4-(trifluoromethyl)phenyl]-9H-carbazole-3-carboxamide], for which the concentration for half-maximal inhibition (IC50) in the experiment with YAP-TEAD interaction and with NCI-H226 cells was 0.1 to 1 µM each time.
On to `Cc1ccc2c(c1)c1cc(C(=O)NCCn3ccnc3)ccc1n2-c1ccc(C(F)(F)F)cc1` [Compound 44, 6-Methyl-9-(4-trifluoromethyl-phenyl)-9H-carbazole-3-carboxylic acid (2-imidazol-1-yl-ethyl)-amide], for which the IC50 with YAP-TEAD interaction and with NCI-H226 cells was 0.1 to 1 µM each time.
`Cc1ccc2c(c1)c1cc(C(=O)NCc3nccn3C)ccc1n2-c1ccc(C(F)(F)F)cc1` [Compound 45]: the IC50 in the experiment with YAP-TEAD interaction and with NCI-H226 cells was 0.1 to 1 µM each time.
Take `Cc1ccc2c(c1)c1cc(C(=O)N[C@](C)(CO)c3ccccc3)ccc1n2-c1ccc(C(F)(F)F)cc1` [Compound 46, N-[(2S)-1-hydroxy-2-phenylpropan-2-yl]-6-methyl-9-[4-(trifluoromethyl)phenyl]-9H-carbazole-3-carboxamide]: the concentration for half-maximal inhibition (IC50) with YAP-TEAD interaction and in the experiment with NCI-H226 cells was 0.1 to 1 µM in each case.
Consider `CCc1ccc2c(c1)c1cc(C(=O)O)ccc1n2-c1ccc(C(F)(F)F)cc1` [Compound 47, 6-ethyl-9-[4-(trifluoromethyl)phenyl]-9H-carbazole-3-carboxylic acid], for which the IC50 fell in the range of 0.001 to 0.01 µM with YAP-TEAD interaction and 0.001 to 0.1 µM in the experiment with NCI-H226 cells.
For the molecule `Cc1ccc2c(c1)c1cc(C(N)=O)ccc1n2-c1ccc(C(F)(F)F)cc1` [Compound 48, 6-methyl-9-[4-(trifluoromethyl)phenyl]-9H-carbazole-3-carboxamide], the concentration for half-maximal inhibition (IC50) lay within 0.01 to 0.1 µM in the experiment with YAP-TEAD interaction and 0.1 to 1 µM with NCI-H226 cells.
As to `Cc1ccc2c(c1)c1cc(C(=O)N3CCC(O)C3)ccc1n2-c1ccc(C(F)(F)F)cc1` (centres unmarked) [Compound 49, 1-{6-methyl-9-[4-(trifluoromethyl)phenyl]-9H-carbazole-3-carbonyl}pyrrolidin-3-ol], the IC50 in the experiment with YAP-TEAD interaction and in the experiment on NCI-H226 cells was 0.1 to 1 µM each time.
`Cc1ccc2c(c1)c1cc(C(=O)N3CCCC(O)C3)ccc1n2-c1ccc(C(F)(F)F)cc1` (centres unmarked) [Compound 50, 1-{6-methyl-9-[4-(trifluoromethyl)phenyl]-9H-carbazole-3-carbonyl}piperidin-3-ol]: the 50% inhibitory concentration (IC50) with YAP-TEAD interaction and in the experiment with NCI-H226 cells was 0.1 to 1 µM throughout.
As to `Cc1ccc2c(c1)c1cc(C(=O)NCc3ccccn3)ccc1n2-c1ccc(C(F)(F)F)cc1` [Compound 51, 6-methyl-N-[(pyridin-2-yl)methyl]-9-[4-(trifluoromethyl)phenyl]-9H-carbazole-3-carboxamide], the IC50 with YAP-TEAD interaction and with NCI-H226 cells was 0.1 to 1 µM each time.
Take `Cc1ccc2c(c1)c1cc(C(=O)NCc3cccnc3)ccc1n2-c1ccc(C(F)(F)F)cc1` [Compound 52, 6-methyl-N-[(pyridin-3-yl)methyl]-9-[4-(trifluoromethyl)phenyl]-9H-carbazole-3-carboxamide]: the IC50 in the experiment on YAP-TEAD interaction lay in the range of 0.1 to 1 µM; in the experiment with NCI-H226 cells it was 0.001 to 0.1 µM.
In the case of `Cc1ccc2c(c1)c1cc(C(=O)NCc3ccncn3)ccc1n2-c1ccc(C(F)(F)F)cc1` [Compound 53, 6-methyl-N-[(pyrimidin-4-yl)methyl]-9-[4-(trifluoromethyl)phenyl]-9H-carbazole-3-carboxamide], the IC50 in the experiment on YAP-TEAD interaction was 0.01 to 0.1 µM; in the experiment with NCI-H226 cells it was 0.001 to 0.1 µM.
For `Cc1ccc2c(c1)c1cc(C(=O)NC3(CO)CCC3)ccc1n2-c1ccc(C(F)(F)F)cc1` [Compound 54, N-[1-(hydroxymethyl)cyclobutyl]-6-methyl-9-[4-(trifluoromethyl)phenyl]-9H-carbazole-3-carboxamide], in that order: 0.1 to 1 µM and 0.1 to 1 µM.
In the case of `Cc1ccc2c(c1)c1cc(C(=O)NCC(O)CO)ccc1n2-c1ccc(C(F)(F)F)cc1` (centres unmarked) [Compound 55, N-(2,3-dihydroxypropyl)-6-methyl-9-[4-(trifluoromethyl)phenyl]-9H-carbazole-3-carboxamide], the IC50 in the experiment on YAP-TEAD interaction lay within 0.01 to 0.1 µM; in the experiment with NCI-H226 cells, 0.001 to 0.1 µM.
On to `Cc1ccc2c(c1)c1cc(C(=O)N[C@@H](CO)C3CCC3)ccc1n2-c1ccc(C(F)(F)F)cc1` [Compound 56, N-[(1R)-1-cyclobutyl-2-hydroxyethyl]-6-methyl-9-[4-(trifluoromethyl)phenyl]-9H-carbazole-3-carboxamide], for which the values for the IC50 in the experiment with YAP-TEAD interaction and with NCI-H226 cells were 0.01 to 0.1 µM and 0.001 to 0.1 µM, respectively.
On to `Cc1ccc2c(c1)c1cc(C(=O)N[C@H]3COC[C@@H]3O)ccc1n2-c1ccc(C(F)(F)F)cc1` [Compound 57, N-[(3S,4R)-4-hydroxyoxolan-3-yl]-6-methyl-9-[4-(trifluoromethyl)phenyl]-9H-carbazole-3-carboxamide], for which the half-inhibitory concentration (IC50) in the experiment on YAP-TEAD interaction and in the experiment on NCI-H226 cells was 0.1 to 1 µM in each case.
`Cc1ccc2c(c1)c1cc(C(=O)N[C@H](c3ccccc3)[C@H](C)O)ccc1n2-c1ccc(C(F)(F)F)cc1` [Compound 58, N-[(1R,2S)-2-hydroxy-1-phenylpropyl]-6-methyl-9-[4-(trifluoromethyl)phenyl]-9H-carbazole-3-carboxamide]: the IC50 in the experiment on YAP-TEAD interaction and with NCI-H226 cells was 0.1 to 1 µM each time.
